{
  "source": "patent US11390661B2",
  "about": "“HCMV entry inhibitors” (priority 2016, dated 2022)",
  "key": {"[1]": {"system": "HCMV strains AD169, Towne, Merlin, VR1814, VHL/E, TB40/F", "experiment": "Inhibition of HFF infection by other HCMV strains", "type": "cell-based, Human cytomegalovirus", "settings": "250 ng/ml, HFFs", "description": "(§1) Infection efficiencies were determined by immunofluorescence staining for viral proteins. For fixation and permeabilization the cells were incubated with 80% acetone for 5 min. For HCMV infected cells the immediate early proteins pUL122/123 were detected with a mouse monoclonal (clone E13, Argene) and visualized using a Cy3 conjugated goat anti-mouse secondary antibody (Jackson Immuno Research). HSV infected cultures were stained 6 h post infection for ICP0 using a mouse monoclonal (clone 11060, Santa Cruz) and goat anti-mouse AF488 (life technologies). DAPI was used to locate nuclei. Infection rates were determined by counting the number of cell nuclei positive for the respective viral protein, as well as the total number of nuclei per image. For each condition three images were evaluated.\nNext, it was tested whether soluble PDGFR-alpha-Fc would inhibit not only strain TB40/E but also other strains of HCMV. […] After an overnight incubation, the fraction of infected cells was determined by immunofluorescence staining of viral immediate early antigen. […]"}, "HSV-1 strain F": {"system": "HSV-1 strain F", "experiment": "Inhibition of HSV infection (specificity control)", "type": "cell-based", "settings": "data not shown", "description": "as §1"}, "HCMV particles": {"molecular_target": "HCMV particles", "experiment": "Binding of chimeric receptors (Fc-fusion proteins) to HCMV particles", "set-up": "species or system Human cytomegalovirus", "description": "To assess the binding of Fc-Proteins to virus particles, HFFs were seeded at a density of 40,000 cells per well on IBIDI plates 1 day prior to infection. Virus preparations were pre-incubated with Fc-fusion proteins at a final concentration of 500 ng/ml for 2 h at 37° C. The virus/Fc-protein mixtures were incubated with the cells for 1.5 h on ice. Before fixation with 80% acetone, the cells were washed once with MEM. For staining of viral particles mouse hybridoma recognizing the abundant viral protein pp150 (generously provided by W. Britt, Sanchez 2000) used.\nThe inventors tested this by staining of adsorbed virus particles with the Fc-fusion proteins. […] Virus particles were stained for the capsid protein pp150 and bound Fc-fusion proteins.\nThe inventors analyzed the mode of inhibition by PDGFR-alpha-Fc. For this, the binding of different concentrations of the fusion protein was quantified by assessing the particle intensities after staining with anti-human antibody (FIG. 5). […] (FIGS. 4 and 5)."}, "[2]": {"system": "TB40-BACKL7-UL32EGFP-UL100mCherry", "experiment": "Adsorption and penetration of dual fluorescent HCMV particles on HFFs", "type": "cell-based, Human cytomegalovirus", "settings": "100 ng/ml", "description": "(§2) To distinguish between adsorption and penetration of viral particles the inventors made use of dual fluorescent HCMV TB40-BACKL7-UL32EGFP-UL100mCherry (Sampaio 2013). HFFs and HECs were seeded at a density of 40,000 cells per well on gelatin-coated MIDI plates. Overnight produced cell-free infectious supernatant of the fluorescent virus was pre-incubated with PDGFR-Fcs for 2 h at 37° C. Before addition of the mixture the cells were pre-incubated with MEM for 30 min. […] After fixation with acetone, the EGFP signal of pUL32-EGFP was enhanced using mouse-anti-GFP (clone 3E6, Invitrogen) and Alexa488-anti-mouse (Life Technologies). DAPI (4′,6-diamidino-2-phenylindole) was added to mark the cell nuclei. The number of mCherry and EGFP positive particles which are enveloped was compared to the number of particles which were only green per cell. These […] particles have lost their UL100mCherry containing envelope, presumably by fusion with cellular membranes.\n(§3) To further investigate, which of the initial steps of infection are blocked, the inventors performed a series of experiments that allowed discriminating between adsorption and penetration. They used the dual fluorescent virus TB40-BACKL7-UL32EGFP-UL100mCherry (Sampaio 2013) as it allows to discriminate between enveloped (EGFP-positive and mCherry positive) and non-enveloped particles (only EGFP positive). […]"}, "[3]": {"system": "TB40-BACKL7-UL32EGFP-UL100mCherry", "experiment": "Adsorption and penetration of dual fluorescent HCMV particles on HECs", "type": "cell-based, Human cytomegalovirus", "settings": "100 ng/ml", "description": "as §2, §3"}, "UL74stop virus": {"system": "UL74stop virus", "experiment": "Inhibition assay with UL74stop virus", "type": "cell-based, Human cytomegalovirus", "description": "To further investigate this, inhibition assays were performed with the UL74stop virus (FIG. 8B). As deletion of pUL74 from the virus has a severe effect on infectivity, virions had to be 50 fold concentrated for the experiment, whereas wild type virus had to be diluted to achieve similar infection rates.\nFIG. 8: pUL74 is the viral interaction partner of PDGFR-alpha-Fc. Virus preparations of strain TB40-BAC4 or TB40-BAC4UL74stop were pretreated for 2 h with PDGFR-alpha-Fc. A: HFFs were fixed after 90 min of incubation with the virus-inhibitor mixture followed by staining for the viral structural protein pUL32 (red) and for Fc (green). B: Wild type or pUL74stop virus preparations were pre-incubated for 2 h with PDGFR-alpha-Fc before infection of HFFs or HECs was allowed. Wild type or UL74stop virus preparations were diluted or concentrated respectively to obtain similar infection rates. Infection rates were determined by calculation of the number of immediate early positive nuclei over total DAPI stained nuclei per image. Out of three independent experiments one is shown."}},
  "data": [
    {"substance": "PDGFR-alpha-Fc: recombinant Fc-fusion protein of the PDGFR-alpha extracellular domain, obtained from R&D (6765-PR-050)", "values": [
      {"measurement": "reduction of infection, strains other than VR1814", "setting": "[1]", "result": "complete"},
      {"measurement": "effect on HSV infection", "setting": "HSV-1 strain F", "result": "not affected"},
      {"measurement": "EC50 of binding to HCMV particles", "setting": "HCMV particles; particle intensities after anti-human antibody staining", "result": 0.108, "unit": "µg/mL"},
      {"measurement": "binding of Fc-fusion protein to virus particles (anti-human antibody staining)", "setting": "HCMV particles; particles pre-incubated with Fc-fusion protein, attached to cells on ice", "result": "binds to the virus"},
      {"measurement": "reduction of adsorption on HFFs", "setting": "[2]", "result": 50, "unit": "%"},
      {"measurement": "reduction of penetration of HFFs (less efficient)", "setting": "[2]", "result": 75, "unit": "%"},
      {"measurement": "effect on penetration of HECs", "setting": "[3]", "result": "affected only in fibroblasts"},
      {"measurement": "reduction of adsorption on HECs", "setting": "[3]", "result": 75, "unit": "%"},
      {"measurement": "infectivity of the UL74stop virus with increasing doses", "setting": "UL74stop virus", "result": "did not significantly change"}
    ]}
  ]
}
